Data published in ChEMBL document CHEMBL5665443, “Enzyme Inhibitor Single Concentration assay results for EUbOPEN Chemogenomics Library” (2024).

Experiments:
[1] = biological target: DNA-3-methyladenine glycosylase (Homo sapiens) (UniProt P29372); conditions: Compound Concentration 10.0 uM, Hit No;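 further: enzyme assay where MPG cuts a quenched duplex DNA oligonucleotide probe, paired with APE1 for strand incision and turnover, read as fluorescence at 594 nm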
Description: Inhibition of MPG by quantifying inhibition of MPG-mediated cleavage and dissociation of quenched duplex DNA oligonucleotides, measured as fluorescence at 594 nm. To generate a functional strand incision and increase turn-over this assay is coupled to APE1.

[2] = biological target: T1, Adenine DNA glycosylase (Homo sapiens) (UniProt Q9UIF7); conditions: Hit No;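 further: human MUTYH activity read as 594 nm fluorescence from cleavage and release of a quenched DNA duplex, coupled with APE1 for strand incision, lower signal meaning inhibition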
T1 sequence (whole entry): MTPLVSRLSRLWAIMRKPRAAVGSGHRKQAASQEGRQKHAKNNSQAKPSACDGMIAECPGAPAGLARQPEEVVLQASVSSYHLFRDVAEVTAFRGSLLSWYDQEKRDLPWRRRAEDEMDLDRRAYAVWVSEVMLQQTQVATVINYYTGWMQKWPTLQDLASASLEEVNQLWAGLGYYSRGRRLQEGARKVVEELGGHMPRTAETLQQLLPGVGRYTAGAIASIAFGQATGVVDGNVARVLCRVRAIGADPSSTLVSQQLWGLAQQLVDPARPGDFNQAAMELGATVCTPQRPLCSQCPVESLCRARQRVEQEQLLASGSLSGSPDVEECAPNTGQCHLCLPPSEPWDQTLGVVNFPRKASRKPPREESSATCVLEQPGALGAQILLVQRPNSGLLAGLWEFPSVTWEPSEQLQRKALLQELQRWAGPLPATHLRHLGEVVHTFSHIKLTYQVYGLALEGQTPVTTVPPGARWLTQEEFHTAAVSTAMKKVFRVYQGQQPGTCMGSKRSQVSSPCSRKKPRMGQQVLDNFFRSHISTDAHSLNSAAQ
Description: Inhibition of MUTYH by quantifying inhibition of MUTYH-mediated cleavage and dissociation of quenched duplex DNA oligonucleotides, measured as fluorescence at 594 nm. To generate a functional strand incision and increase turn-over this assay is coupled to APE1.

[3] = biological target: T2, Endonuclease 8-like 2 (Homo sapiens) (UniProt Q969S2); conditions: Compound Concentration 10.0 uM, Hit No;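 further: fluorescence at 594 nm reports NEIL2 cutting and release of a quenched double-stranded DNA oligo substrate, reduced signal read as inhibition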
T2 sequence (whole entry): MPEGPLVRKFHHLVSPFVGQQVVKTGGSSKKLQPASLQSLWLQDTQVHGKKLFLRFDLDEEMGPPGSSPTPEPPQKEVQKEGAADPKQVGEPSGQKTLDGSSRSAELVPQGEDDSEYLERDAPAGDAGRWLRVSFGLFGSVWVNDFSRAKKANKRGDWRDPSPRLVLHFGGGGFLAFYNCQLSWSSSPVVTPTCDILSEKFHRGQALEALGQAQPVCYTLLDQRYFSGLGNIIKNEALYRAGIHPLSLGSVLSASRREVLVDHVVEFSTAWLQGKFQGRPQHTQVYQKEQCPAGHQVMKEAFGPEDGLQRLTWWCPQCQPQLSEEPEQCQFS
Description: Inhibition of NEIL2 by quantifying inhibition of NEIL2-mediated cleavage and dissociation of quenched duplex DNA oligonucleotides, measured as fluorescence at 594 nm.

[4] = biological target: T3, Single-strand selective monofunctional uracil DNA glycosylase (Homo sapiens) (UniProt Q53HV7); conditions: Hit No;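 further: enzymatic SMUG1 assay coupled with APE1, reading fluorescence at 594 nm released when a quenched double-stranded DNA oligonucleotide substrate is cleaved and separated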
T3 sequence (whole entry): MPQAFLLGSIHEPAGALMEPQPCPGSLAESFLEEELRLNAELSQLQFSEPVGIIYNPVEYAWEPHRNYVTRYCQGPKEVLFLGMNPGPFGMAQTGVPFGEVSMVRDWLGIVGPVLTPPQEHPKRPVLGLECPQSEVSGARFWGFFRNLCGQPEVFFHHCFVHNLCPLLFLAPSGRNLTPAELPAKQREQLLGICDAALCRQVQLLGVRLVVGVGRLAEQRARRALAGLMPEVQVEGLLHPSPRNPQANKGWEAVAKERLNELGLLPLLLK
Description: Inhibition of SMUG1 by quantifying inhibition of SMUG1-mediated cleavage and dissociation of quenched duplex DNA oligonucleotides, measured as fluorescence at 594 nm. To generate a functional strand incision and increase turn-over this assay is coupled to APE1.

[5] = biological target: T4, Endonuclease III-like protein 1 (Homo sapiens) (UniProt P78549); conditions: Hit No;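 further: enzyme assay tracking NTHL1 cutting and release of a quenched double-stranded DNA oligo substrate, read as fluorescence at 594 nm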
T4 sequence (whole entry): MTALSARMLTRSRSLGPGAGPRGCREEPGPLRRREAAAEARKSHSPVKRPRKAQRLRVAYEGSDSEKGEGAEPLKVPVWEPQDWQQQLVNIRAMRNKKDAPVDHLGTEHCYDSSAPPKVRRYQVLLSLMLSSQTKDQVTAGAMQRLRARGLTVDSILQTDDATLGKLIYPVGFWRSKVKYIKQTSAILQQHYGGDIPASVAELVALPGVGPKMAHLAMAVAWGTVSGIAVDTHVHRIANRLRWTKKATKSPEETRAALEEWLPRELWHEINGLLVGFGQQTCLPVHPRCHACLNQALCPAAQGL
Description: Inhibition of NTHL1 by quantifying inhibition of NTHL1-mediated cleavage and dissociation of quenched duplex DNA oligonucleotides, measured as fluorescence at 594 nm.

[6] = biological target: G/T mismatch-specific thymine DNA glycosylase (Homo sapiens) (UniProt Q13569);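 further: human TDG cleavage of quenched duplex DNA oligonucleotides coupled to APE1, strand release read as fluorescence at 594 nm, inhibition of TDG activity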
Chain of G/T mismatch-specific thymine DNA glycosylase (Homo sapiens) (Q13569 whole entry, the tested form may be a part): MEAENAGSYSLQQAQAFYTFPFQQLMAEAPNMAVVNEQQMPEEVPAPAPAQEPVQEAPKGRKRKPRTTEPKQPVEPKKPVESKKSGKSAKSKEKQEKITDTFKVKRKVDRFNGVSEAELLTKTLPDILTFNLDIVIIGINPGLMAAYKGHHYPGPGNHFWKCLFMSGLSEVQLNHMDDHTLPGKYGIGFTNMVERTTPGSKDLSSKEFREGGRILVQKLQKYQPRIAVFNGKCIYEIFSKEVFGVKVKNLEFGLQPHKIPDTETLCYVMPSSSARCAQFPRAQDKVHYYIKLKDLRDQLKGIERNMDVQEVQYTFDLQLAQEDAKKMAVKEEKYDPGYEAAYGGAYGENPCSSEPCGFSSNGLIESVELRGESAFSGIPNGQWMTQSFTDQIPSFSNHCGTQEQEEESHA
Description: Inhibition of TDG by quantifying inhibition of TDG-mediated cleavage and dissociation of quenched duplex DNA oligonucleotides, measured as fluorescence at 594 nm. To generate a functional strand incision and increase turn-over this assay is coupled to APE1.

[7] = biological target: Methyl-CpG-binding domain protein 4 (Homo sapiens) (UniProt O95243);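 further: MBD4 activity read as fluorescence at 594 nm from cleavage and release of a quenched duplex DNA oligonucleotide, with APE1 coupled to incise the strand and raise turnover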
Chain of Methyl-CpG-binding domain protein 4 (Homo sapiens) (O95243 whole entry, the tested form may be a part): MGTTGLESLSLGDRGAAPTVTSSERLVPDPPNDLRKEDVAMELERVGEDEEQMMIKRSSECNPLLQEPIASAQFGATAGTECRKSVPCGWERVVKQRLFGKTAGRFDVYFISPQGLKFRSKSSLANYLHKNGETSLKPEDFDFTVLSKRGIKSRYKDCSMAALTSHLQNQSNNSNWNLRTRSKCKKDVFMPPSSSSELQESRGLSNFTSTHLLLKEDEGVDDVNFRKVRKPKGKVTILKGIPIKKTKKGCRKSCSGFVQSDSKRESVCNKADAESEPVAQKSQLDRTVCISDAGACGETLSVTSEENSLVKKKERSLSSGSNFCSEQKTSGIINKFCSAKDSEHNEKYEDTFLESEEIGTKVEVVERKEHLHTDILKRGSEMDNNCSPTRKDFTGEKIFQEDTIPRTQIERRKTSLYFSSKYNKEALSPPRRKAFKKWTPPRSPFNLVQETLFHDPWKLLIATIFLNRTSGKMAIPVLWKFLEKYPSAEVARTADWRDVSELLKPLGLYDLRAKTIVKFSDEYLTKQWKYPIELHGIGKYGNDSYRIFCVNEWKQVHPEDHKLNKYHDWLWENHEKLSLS
Description: Inhibition of MBD4 by quantifying inhibition of MBD4-mediated cleavage and dissociation of quenched duplex DNA oligonucleotides, measured as fluorescence at 594 nm. To generate a functional strand incision and increase turn-over this assay is coupled to APE1.

[8] = biological target: Endonuclease 8-like 1 (Homo sapiens) (UniProt Q96FI4); conditions: Hit No;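 further: fluorescence at 594 nm from quenched duplex DNA oligonucleotides released by NEIL1 cleavage and strand separation, reported as reduction of this enzyme activity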
Chain of Endonuclease 8-like 1 (Homo sapiens) (Q96FI4 whole entry): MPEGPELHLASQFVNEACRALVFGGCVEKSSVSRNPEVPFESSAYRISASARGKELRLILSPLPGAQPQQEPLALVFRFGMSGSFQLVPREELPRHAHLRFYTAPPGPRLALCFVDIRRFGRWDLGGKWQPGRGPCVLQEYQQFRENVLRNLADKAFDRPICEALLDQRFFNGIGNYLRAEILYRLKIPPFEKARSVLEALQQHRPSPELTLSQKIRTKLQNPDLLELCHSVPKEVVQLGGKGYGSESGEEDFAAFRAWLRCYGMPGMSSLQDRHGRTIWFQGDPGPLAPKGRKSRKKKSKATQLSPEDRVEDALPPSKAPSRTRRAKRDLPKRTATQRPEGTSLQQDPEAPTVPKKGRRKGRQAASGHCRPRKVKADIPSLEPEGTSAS
Description: Inhibition of NEIL1 by quantifying inhibition of NEIL1-mediated cleavage and dissociation of quenched duplex DNA oligonucleotides, measured as fluorescence at 594 nm.

[9] = biological target: N-glycosylase/DNA lyase (Homo sapiens) (UniProt O15527);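 further: OGG1 cleavage of a quenched duplex DNA oligonucleotide, coupled to APE1 for strand incision, read as fluorescence at 594 nm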
Chain of N-glycosylase/DNA lyase (Homo sapiens) (O15527 whole entry): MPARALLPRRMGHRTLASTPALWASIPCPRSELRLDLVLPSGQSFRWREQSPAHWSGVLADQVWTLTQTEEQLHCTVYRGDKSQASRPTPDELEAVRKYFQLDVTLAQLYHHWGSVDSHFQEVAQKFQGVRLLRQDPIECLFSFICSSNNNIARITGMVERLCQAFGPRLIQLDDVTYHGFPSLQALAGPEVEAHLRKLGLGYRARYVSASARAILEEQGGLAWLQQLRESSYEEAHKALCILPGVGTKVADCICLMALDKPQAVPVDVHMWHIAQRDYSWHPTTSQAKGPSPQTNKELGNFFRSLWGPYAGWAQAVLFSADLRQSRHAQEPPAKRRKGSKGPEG
Description: Inhibition of OGG1 by quantifying inhibition of OGG1-mediated cleavage and dissociation of quenched duplex DNA oligonucleotides, measured as fluorescence at 594 nm. To generate a functional strand incision and increase turn-over this assay is coupled to APE1.

[10] = biological target: Uracil-DNA glycosylase (Homo sapiens) (UniProt P13051); conditions: Hit No;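 further: UNG excision on a quenched double-stranded DNA oligo probe, with APE1 added for strand incision and turnover, read as fluorescence at 594 nm as strands separate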
Chain of Uracil-DNA glycosylase (Homo sapiens) (P13051 whole entry): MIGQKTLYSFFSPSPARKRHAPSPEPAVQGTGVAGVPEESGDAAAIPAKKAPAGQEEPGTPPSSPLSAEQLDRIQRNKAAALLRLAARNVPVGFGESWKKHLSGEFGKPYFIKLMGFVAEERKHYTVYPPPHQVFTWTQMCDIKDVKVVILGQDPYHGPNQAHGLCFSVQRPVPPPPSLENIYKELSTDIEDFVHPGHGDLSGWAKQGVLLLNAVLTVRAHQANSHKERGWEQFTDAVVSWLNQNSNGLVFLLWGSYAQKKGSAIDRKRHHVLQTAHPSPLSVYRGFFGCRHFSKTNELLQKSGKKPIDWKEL
Description: Inhibition of UNG by quantifying inhibition of UNG-mediated cleavage and dissociation of quenched duplex DNA oligonucleotides, measured as fluorescence at 594 nm. To generate a functional strand incision and increase turn-over this assay is coupled to APE1.

[11] = Compound Concentration 1.0 uM, Hit No
[12] = Compound Concentration 10.0 uM, Hit No
[13] = Compound Concentration 10.0 uM, Hit Yes

Chain of DNA-3-methyladenine glycosylase (Homo sapiens) (P29372 whole entry): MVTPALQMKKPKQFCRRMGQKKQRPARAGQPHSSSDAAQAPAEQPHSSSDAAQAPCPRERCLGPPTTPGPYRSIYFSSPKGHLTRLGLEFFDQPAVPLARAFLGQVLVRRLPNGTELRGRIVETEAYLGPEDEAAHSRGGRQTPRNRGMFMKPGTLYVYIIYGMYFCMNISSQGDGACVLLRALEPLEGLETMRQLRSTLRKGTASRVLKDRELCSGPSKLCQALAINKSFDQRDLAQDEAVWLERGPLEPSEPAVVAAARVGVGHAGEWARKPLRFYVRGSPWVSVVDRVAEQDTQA

| SMILES | inhibition [1] [%] | inhibition ([2]; Compound Concentration 10.0 uM) [%] | inhibition [3] [%] | inhibition ([4]; Compound Concentration 10.0 uM) [%] | inhibition ([5]; Compound Concentration 10.0 uM) [%] | inhibition [6, 12] [%] | inhibition [7, 12] [%] | inhibition ([8]; Compound Concentration 10.0 uM) [%] | inhibition [9, 12] [%] | inhibition ([10]; Compound Concentration 10.0 uM) [%] | also measured |
| --- | --- | --- | --- | --- | --- | --- | --- | --- | --- | --- | --- |
| Cn1cc(Cl)c2c(Oc3c(F)cc(Nc4cc(Cl)nc(N)n4)cc3F)ccnc21 | -1.23 | 40.4 | 2.57 | 27.1 | -1.29 | 53.4 | 64.2 | 4.86 | -9.66 | 11.7 | inhibition ([2]; Compound Concentration 1.0 uM): 1.46%; inhibition ([4]; Compound Concentration 1.0 uM): 17.9%; inhibition ([5]; Compound Concentration 1.0 uM): 8.46%; inhibition [6, 11]: 48.5%; inhibition [7, 11]: -4.8%; inhibition ([8]; Compound Concentration 1.0 uM): -7.79%; inhibition [9, 11]: -2.36%; inhibition ([10]; Compound Concentration 1.0 uM): 2.73% |
| COC[C@H](O)Cn1c(=O)cnn(-c2ccc(Cl)c(C(=O)NCC3(O)CCCCCC3)c2)c1=O | 19.8 | 7.26 | -2.64 | -5.5 | -8.51 | 9.08 | 2.28 | 1.64 | -7.67 | -3.13 |  |
| Cn1nc(C(=O)NCc2ccc(C(=O)O)cc2)cc1-c1ccc2[nH]ccc2c1 | 115 | -5.73 | -4.83 | 8.36 | -3.92 | 56.9 | 70.9 | 1.38 | 0.23 | 0.276 |  |
| CCCC(=O)N[C@@H](Cc1ccc(O)cc1)C(=O)NCCCCCCCNCCCCN | 2.86 | -4.41 | -1.62 | -0.749 | -3.56 | 12.1 | 20.4 | 4.46 | -0.213 | -4.14 |  |
| CCCCCCCCc1ccc(CC[C@](N)(CO)COP(=O)(O)O)cc1 | 7.62 | 6.04 | 6.75 | 0.742 | -3.94 | 7.26 | -2.75 | 9.14 | 0.481 | -7.46 |  |
| COc1cc(Nc2ccnc3ccc(Br)cc23)cc(OC)c1OC | 34.4 | 35 | 1.58 | 26.8 | 0.785 | 50.8 | 11.8 | 10 | 14.7 | 12.8 |  |
| O=C(COc1cccc2ccccc12)Nc1cc(Cl)ccc1C(=O)O | 16.5 | 64.4 | 5.25 | 8.57 | 12.9 | 37.7 | 33.2 | 6.38 | 24.8 | 2.63 |  |
| COc1cc(Br)c(S(=O)(=O)Nc2ccc(C(F)(F)F)c(O[C@@H]3CCN(C)C3)c2)cc1OC | -9.93 | -3.82 | -4.68 | -0.0706 | 13.8 | -0.305 | -1.76 | -6.66 | -7.69 | -6.21 |  |
| O=S(=O)(Nc1nnc2cc(OCC34CC5CC(CC(C5)C3)C4)c(C3CC3)cn12)C1CC1 | 62.1 | 84.7 | 11.9 | 11.5 | 10.5 |  |  | 6.23 |  | 12 | inhibition [6, 13]: 73.8%; inhibition [7, 13]: 80.9%; inhibition [9, 13]: 53% |
| CSc1ccc(C(=O)/C=C/c2cc(C)c(OC(C)(C)C(=O)O)c(C)c2)cc1 | -8.02 | 16.2 | 2.06 | 7.83 | 2 | 99.6 | 77.3 | 0.467 | 18.2 | -1.57 |  |
| CC1(C)[C@H]2C[C@H](C/C=C\CCCC(=O)O)[C@@H](NC(=O)c3csc4ccc(O)cc34)[C@@H]1C2 | 9.36 | 14.6 | 3.51 | -7.2 | -3.21 | 20.1 | 19.3 | 13.3 | 3.96 | -7.99 |  |
| CCOC(=O)c1ccc(N2C(=O)C(O)=C(C(=O)c3ccc(OC)cc3)C2c2ccc(F)cc2)cc1 (stereo not drawn) | 15.7 | 62.9 | 0.414 | 1.4 | 21.2 | 46.7 | 55.1 | 11.9 | -5.97 | 1.33 |  |
| CCc1cc2c(cc1CC)CC(NC[C@H](O)c1ccc(O)c3[nH]c(=O)ccc13)C2 | 1.41 | 21.3 | -2.48 | -5.22 | 12.9 | 16.1 | 15.2 | 0.834 | 4.23 | -8.46 |  |
| N[C@](CC1c2ccccc2Oc2ccccc21)(C(=O)O)[C@H]1C[C@@H]1C(=O)O | 10.3 | 12.3 | 0.414 | -0.127 | 8.82 | 24.2 | 16.1 | 0.898 | -5.15 | -3.16 |  |
